# Laboratory results published in patent US10995091B2 (Proximagen, LLC, priority 2010, dated 2021).
# Where a name gives a salt, the structure may show the parent alone.
# Target: T1, Human CXCR4 transfected HEK293 cells (Homo sapiens, UniProt P61073)
# T1 construct: expressed in transfected cells; host or cells: HEK293
# Assay: CXCR4 functional calcium assay (calcium flux FLIPR, antagonism of SDF1 response)
# Format: cell-based
# Conditions: CXCR4 functional activity, antagonism of SDF1 (EC50 concentration), read-out: CXCR4 fKi
# Summary of the method: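 Dose-dependent antagonism of the SDF1 response was read by FLIPR as Fluo-4 calcium signal (2 μM dye) in CXCR4-expressing human HEK293 cells, in HBSS with probenecid, BSA and HEPES at pH 7.4 and 37° C. Test compound was given before an EC50-level SDF1 challenge. Curves were then fitted.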
# T1 sequence (P61073 whole entry): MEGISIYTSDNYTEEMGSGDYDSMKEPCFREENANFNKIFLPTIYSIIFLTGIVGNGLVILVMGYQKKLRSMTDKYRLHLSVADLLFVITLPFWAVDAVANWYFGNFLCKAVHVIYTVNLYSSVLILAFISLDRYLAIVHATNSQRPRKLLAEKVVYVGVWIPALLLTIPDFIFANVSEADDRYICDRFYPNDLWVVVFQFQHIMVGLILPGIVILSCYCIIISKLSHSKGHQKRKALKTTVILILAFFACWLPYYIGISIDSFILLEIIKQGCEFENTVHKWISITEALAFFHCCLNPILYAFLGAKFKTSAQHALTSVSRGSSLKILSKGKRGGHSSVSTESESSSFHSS
row,Ki,SMILES
1,< 20 nM,"[2H]C1([2H])CCN(C2CCN(Cc3ccccc3Cl)CC2)CCN1c1cccc(C(=O)Nc2ccncc2)n1 [Example 180, 6-(4-{1-[(2-Chlorophenyl)methyl]piperidin-4-yl}-7,7-dihydrogenio-1,4-diazepan-1-yl)-N-(pyridin-4-yl)pyridine-2-carboxamide]"
2,500 to 1000 nM,"COc1ccc2[nH]c(-c3cccc(N4CCCN(C5CCN(C(C)C)CC5)CC4)n3)cc2c1 [Example 105, 5-Methoxy-2-(6-{4-[1-(propan-2-yl)piperidin-4-yl]-1,4-diazepan-1-yl}pyridine-2-yl)-1H-indole]"
3,20 to 100 nM,"CC(C)N1CCC(N2CCCN(c3cccc(-c4noc(-c5ccncc5)n4)n3)CC2)CC1 [Example 167, 1-[1-(Propan-2-yl)piperidin-4-yl]-4-{6-[5-(pyridine-4-yl)-1,2,4-oxadiazol-3-yl]pyridine-2-yl}-1,4-diazepane tetrahydrochloride]"
4,20 to 100 nM,"O=C(NCc1cccnc1)c1cccc(N2CCCN(C3CCN(Cc4ccccc4Cl)CC3)CC2)n1 [Example 55, 6-(4-{1-[(2-Chlorophenyl)methyl]piperidin-4-yl}-1,4-diazepan-1-yl)-N-(pyridine-3-ylmethyl)pyridine-2-carboxamide]"
5,100 to 500 nM,"CC(C)N1CCC(N2CCCN(c3cccc(-c4cc5ccccc5n4C)n3)CC2)CC1 [Example 95, 1-Methyl-2-(6-{4-[1-(propan-2-yl)piperidin-4-yl]-1,4-diazepan-1-yl}pyridine-2-yl)-1H-indole]"
6,500 to 1000 nM,"CCN1CCC(N2CCCN(c3cccc(C(=O)NCC4CC4)n3)CC2)CC1 [Example 60, N-(Cyclopropylmethyl)-6-[4-(1-ethylpiperidin-4-yl)-1,4-diazepan-1-yl]pyridine-2-carboxamide]"
7,100 to 500 nM,"COCCNC(=O)c1cccc(N2CCCN(C3CCN(Cc4ccccc4Cl)CC3)CC2)n1 [Example 50, 6-(4-{1-[(2-Chlorophenyl)methyl]piperidin-4-yl}-1,4-diazepan-1-yl)-N-(2-methoxyethyl)pyridine-2-carboxamide]"
8,100 to 500 nM,"CC(C)N1CCC(N2CCCN(c3cccc(C(=O)NCCF)n3)CC2)CC1 [Example 8, N-(2-Fluoroethyl)-6-{4-[1-(propan-2-yl)piperidin-4-yl]-1,4-diazepan-1-yl}pyridine-2-carboxamide]"
9,20 to 100 nM,"CCC(CC)N1CCC(N2CCCN(c3cccc(C(=O)NCC4CC4)n3)CC2)CC1 [Example 66, N-(Cyclopropylmethyl)-6-{4-[1-(pentan-3-yl)piperidin-4-yl]-1,4-diazepan-1-yl}pyridine-2-carboxamide]"
10,100 to 500 nM,"O=C(NCC1CC1)c1cccc(N2CCCN(CCCNCc3ccccc3Cl)CC2)n1 [Example 258, 6-[4-(3-{[(2-Chlorophenyl)methyl]amino}propyl)-1,4-diazepan-1-yl]-N-(cyclopropylmethyl)pyridine-2-carboxamide]"
11,< 20 nM,"CC[C@H](C)N1CCC(N2CCCN(c3cccc(C(=O)Nc4ccncc4)n3)CC2)CC1 [Example 79, 6-(4-{1-[(2S)-Butan-2-yl]piperidin-4-yl}-1,4-diazepan-1-yl)-N-(pyridine-4-yl)pyridine-2-carboxamide]"
12,500 to 1000 nM,"O=C(NCC1CC1)c1cccc(N2CCCN(CCCN3CCc4ccccc4C3)CC2)n1 [Example 252, N-(Cyclopropylmethyl)-6-{4-[3-(1,2,3,4-tetrahydroisoquinolin-2-yl)propyl]-1,4-diazepan-1-yl}pyridine-2-carboxamide]"
13,20 to 100 nM,"CCNC(=O)c1cccc(N2CCCN(C3CCN(Cc4ccccc4Cl)CC3)CC2)n1 [Example 137, 6-(4-{1-[(2-Chlorophenyl)methyl]piperidin-4-yl}-1,4-diazepan-1-yl)-N-ethylpyridine-2-carboxamide]"
14,< 20 nM,"[2H]C1([2H])CCN(c2cccc(C(=O)Nc3ccncc3)n2)CCN1C1CCN([C@@H](C)CC)CC1 [Example 189, 6-(4-{1-[(2S)-Butan-2-yl]piperidin-4-yl}-5,5-dihydrogenio-1,4-diazepan-1-yl)-N-(pyridin-4-yl)pyridine-2-carboxamide]"
15,100 to 500 nM,"CC(C)N1CCOCC1CCN1CCCN(c2cccc(C(=O)Nc3ccncc3)n2)CC1 (stereo not shown) [Example 201, 6-(4-{2-[4-(Propan-2-yl)morpholin-3-yl]ethyl}-1,4-diazepan-1-yl)-N-(pyridin-4-yl)pyridine 2-carboxamide]"
16,100 to 500 nM,"CC(C)N1CCC(N2CCCN(c3cccc(C(=O)NCCCn4ccnc4)n3)CC2)CC1 [Example 3, N-[3-(1H-Imidazol-1-yl)propyl]-6-{4-[1-(propan-2-yl)piperidin-4-yl]-1,4-diazepan-1-yl}pyridine-2-carboxamide]"

row,Ki,SMILES
1,20 to 100 nM,"Cc1nc(-c2cccc(NCCNC3CCCN(C4CCCC4)CC3)n2)[nH]c1C1CC1 (stereo not shown) [Example 246, 1-Cyclopentyl-N-(2-{[6-(5-cyclopropyl-4-methyl-1H-imidazol-2-yl)pyridin-2-yl]amino}ethyl)azepan-4-amine]"
2,< 20 nM,"CC(C)N1CCC(N2CCCN(c3cccc(-c4ncc(C5CC5)[nH]4)n3)CC2)CC1 [Example 111, 1-[6-(4-Cyclopropyl-1H-imidazol-2-yl)pyridine-2-yl]-4-[1-(propan-2-yl)piperidin-4-yl]-1,4-diazepane]"
3,100 to 500 nM,"CC(C)N1CCC(N2CCCN(c3cccc(C(=O)NC[C@H]4CCCO4)n3)CC2)CC1 [Example 20, N-[(2R)-Oxolan-2-ylmethyl]-6-{4-[1-(propan-2-yl)piperidin-4-yl]-1,4-diazepan-1-yl}pyridine-2-carboxamide]"
4,20 to 100 nM,"Cc1ccc(NC(=O)c2cccc(N3CCCN(C4CCN(C(C)C)CC4)CC3)n2)cc1 [Example 27, N-(4-Methylphenyl)-6-{4-[1-(propan-2-yl)piperidin-4-yl]-1,4-diazepan-1-yl}pyridine-2-carboxamide]"
5,100 to 500 nM,"CC(C)(N1CCC(N2CCCN(c3cccc(C(=O)NCc4cccnc4)n3)CC2)CC1)C(F)(F)F [Example 91, N-(Pyridin-3-ylmethyl)-6-{4-[1-(1,1,1-trifluoro-2-methylpropan-2-yl)piperidin-4-yl]-1,4-diazepan-1-yl}pyridine-2-carboxamide]"
6,100 to 500 nM,"CC(C)N1CCC(N2CCCN(c3cccc(C(=O)NC4CCOCC4)n3)CC2)CC1 [Example 2, N-(Oxan-4-yl)-6-{4-[1-(propan-2-yl)piperidin-4-yl]-1,4-diazepan-1-yl}pyridine-2-carboxamide]"
7,20 to 100 nM,"[2H]C1([2H])CCN(c2cccc(C(=O)NCC3CC3)n2)CCN1C1CCN(C(C)C)CC1 [Example 192, N-(Cyclopropylmethyl)-6-{5,5-dihydrogenio-4-[1-(propan-2-yl)piperidin-4-yl]-1,4-diazepan-1-yl}pyridine-2-carboxamide]"
8,< 20 nM,"CCc1nc(-c2cccc(N3CCCN(C4CCN(C(C)C)CC4)CC3)n2)[nH]c1C1CC1 [Example 122, 1-[6-(4-Cyclopropyl-5-ethyl-1H-imidazol-2-yl)pyridine-2-yl]-4-[1-(propan-2-yl)piperidin-4-yl]-1,4-diazepane]"
9,500 to 1000 nM,"O=C(NCC1CC1)c1cccc(N2CCC(NCc3ccccc3Cl)CC2)n1 [Example 248, 6-(4-{[(2-Chlorophenyl)methyl]amino}piperidin-1-yl)-N-(cyclopropylmethyl)pyridine-2-carboxamide]"
10,< 20 nM,"Cc1cnccc1NC(=O)c1cccc(N2CCCN(C3CCN(C(C)C)CC3)CC2)n1 [Example 88, N-(3-Methylpyridin-4-yl)-6-{4-[1-(propan-2-yl)piperidin-4-yl]-1,4-diazepan-1-yl}pyridine-2-carboxamide]"
11,< 20 nM,"O=C(Nc1ccncc1)c1cccc(N2CC[C@@H](NC[C@@H]3CCN(C4CCCC4)C3)C2)n1 [Example 226, 6-[(3R)-3-({[(3S)-1-Cyclopentylpyrrolidin-3-yl]methyl}amino)pyrrolidin-1-yl]-N-(pyridin-4-yl)pyridine-2-carboxamide]"
12,< 20 nM,"CC(C)N1CCC(N2CCCN(c3cccc(C(=O)Nc4ccncc4)n3)CC2)C(F)C1 (stereo not shown) [Example 210, 6-{4-[3-Fluoro-1-(propan-2-yl)piperidin-4-yl]-1,4-diazepan-1-yl}-N-(pyridin-4-yl)pyridine-2-carboxamide]"
13,100 to 500 nM,"CC(C)N1CCC(N2CCCN(c3cccc(-c4noc(C5CCCC5)n4)n3)CC2)CC1 [Example 162, 1-[6-(5-Cyclopentyl-1,2,4-oxadiazol-3-yl)pyridine-2-yl]-4-[1-(propan-2-yl)piperidin-4-yl]-1,4-diazepane]"
14,20 to 100 nM,"CC(C)N1CCC(N2CCCN(c3cccc(-c4cc5ncccc5[nH]4)n3)CC2)CC1 [Example 96, 1-[1-(Propan-2-yl)piperidin-4-yl]-4-(6-{1H-pyrrolo[3,2-b]pyridine-2-yl}pyridine-2-yl)-1,4-diazepane]"
15,20 to 100 nM,"CC(C)N1CCC(N2CCCN(c3cccc(C(=O)NCc4ncco4)n3)CC2)CC1 [Example 38, N-(1,3-Oxazol-2-ylmethyl)-6-{4-[1-(propan-2-yl)piperidin-4-yl]-1,4-diazepan-1-yl}pyridine-2-carboxamide]"
16,20 to 100 nM,"CCCNC(=O)c1cccc(N2CCCN(C3CCN(C(C)C)CC3)CC2)n1 [Example 5, 6-{4-[1-(Propan-2-yl)piperidin-4-yl]-1,4-diazepan-1-yl}-N-propylpyridine-2-carboxamide]"

row,SMILES,Ki
1,"O=C(Nc1ccncc1)c1cccc(N2CCC3CCCC(C2)N3C2CCN(Cc3ccccc3Cl)CC2)n1 (stereo not shown) [Example 218, 6-(10-{1-[(2-Chlorophenyl)methyl]piperidin-4-yl}-3,10-diazabicyclo[4.3.1]decan-3-yl)-N-(pyridin-4-yl)pyridine-2-carboxamide]",100 to 500 nM
2,"O=C(Nc1ccncc1)c1cccc(N2CC3CCC(C2)N(C2CCN(Cc4ccccc4Cl)CC2)C3)n1 (stereo not shown) [Example 208, 6-(6-{1-[(2-Chlorophenyl)methyl]piperidin-4-yl}-3,6-diazabicyclo[3.2.2]nonan-3-yl)-N-(pyridin-4-yl)pyridine-2-carboxamide]",100 to 500 nM
